The assay concerns the target T1, 5-lipoxygenase (Mus musculus, UniProt P48999).
T1 construct: The supernatant is used as a 5-lipogenase enzyme solution; endogenous in cells
T1 sequence (P48999 1-674): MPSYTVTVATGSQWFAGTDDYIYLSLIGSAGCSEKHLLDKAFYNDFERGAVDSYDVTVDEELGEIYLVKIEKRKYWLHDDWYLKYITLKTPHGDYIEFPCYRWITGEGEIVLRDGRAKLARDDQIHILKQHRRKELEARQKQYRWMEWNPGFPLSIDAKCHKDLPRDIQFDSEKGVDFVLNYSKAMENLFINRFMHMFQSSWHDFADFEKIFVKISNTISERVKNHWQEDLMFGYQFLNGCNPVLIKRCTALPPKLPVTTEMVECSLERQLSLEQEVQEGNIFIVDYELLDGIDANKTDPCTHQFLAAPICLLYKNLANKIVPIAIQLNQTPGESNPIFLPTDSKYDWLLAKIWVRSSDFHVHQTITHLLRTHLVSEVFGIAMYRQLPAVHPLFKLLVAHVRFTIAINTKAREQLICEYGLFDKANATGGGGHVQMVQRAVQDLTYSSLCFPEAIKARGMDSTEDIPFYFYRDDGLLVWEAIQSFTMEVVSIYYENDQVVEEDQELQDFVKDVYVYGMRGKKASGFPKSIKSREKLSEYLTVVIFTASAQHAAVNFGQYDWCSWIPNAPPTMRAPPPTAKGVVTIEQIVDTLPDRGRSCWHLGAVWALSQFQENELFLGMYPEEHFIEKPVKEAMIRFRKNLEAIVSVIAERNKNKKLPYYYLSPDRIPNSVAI
Put plainly: 5-Lipoxygenase-inhibiting Activity (decrease in 5-HETE and LTB4 formed from radiolabelled arachidonic acid, enzyme solution from mouse mastcytoma cells P-815). The class given is biochemical. Particulars: 5-HETE and LTB4 formation; mouse mastcytoma P-815 enzyme solution; 37° C., 5 min; pH 7.4; with indomethacin; read-out: 50% Inhibitory concentration IC50. Here is the method: Mouse mastcytoma cells P-815 are diluted in a culture solution, containing 90% Eagle Basic Medium (manufactured by Gibco Laboratories) to 5×10^4 cells/ml. The diluted solution is cultivated with shaking in air at 37° C. for 48 hours. Then, the culture solution is cooled with ice and centrifuged to collect the cells. The cells are suspended in a phosphate buffer solution at pH 7.4 at a concentration of 2×10^7 cells/ml. The suspension is treated in a ultrasonic cell disintegrater and then centrifuged at 10,000 r.p.m. for 10 min. The supernatant is used as a 5-lipogenase enzyme solution. In test tubes are placed 20 μl of radiolabelled arachidonic acid ([…]), indomethacin (2×10^-8 mol) and an amide derivative to be tested, respectively. To each of the test tubes are added 0.45 ml of a phosphate buffer solution, 0.45 ml of the above-prepared suspension, 0.45 ml of the above-prepared enzyme solution and 0.1 ml of 8 mM CaCl2 (calcium chloride). The mixture is reacted at 37° C. for 5 min. After cooled with ice, 60 μl of 1N-HCl (hydrochloric acid is added to the reaction mixture, which is then extracted with 8 ml of ethyl acetate. The extract is concentrated, and the concentrate is developed by spotting on a silica gel thin layer plate (Merck 60F 254). Measurement of the inhibitory activity is made by collecting fractions corresponding to lipoxygenase products 5-HETE (5(s)-hydroxy-6,8,11,14-eicosatetraenic acid) and LTB4 (leucotriene B4) and determining the radioactivity by a liquid scintillation counter. The lipoxygenase inhibiting activity is determined by decrease in the amount of the above-mentioned 5-lipoxygenaseproducts. […] 50% inhibitory concentration or 30% inhibitory concentration as indicated in the table means the concentration of an amide derivative required for reducing the amount of the above-mentioned 5-lipoxygenase products (5-HETE and LTB4) to 50% or 30% of the amount when the amount of 5-HETE and LTB4 produced in the absenced of the amide derivative is 100%.
As for `COc1cc(/C=C/C=C/C(=O)NCCCN2CCN(C(c3ccccc3)c3ccc(Cl)cc3)CC2)ccc1O` (stereo not shown) [Example 39, N-(p-chlorobenzhydryl)-N'-[3-{5-(3-methoxy-4-hydroxyphenyl)-2,4-pentadienoyl)aminopropyl]piperazine], the IC50 turned out to be 100 nM.

Regarding `COc1cc(/C=C/C(=O)NCCCCNC(=O)/C=C/c2ccc(O)c(OC)c2)ccc1O` [Example 4, N,N'-bis-{3-(3-methoxy-4-hydroxyphenyl)-2-propenoyl}-1,4-diaminobutane], the IC50 stood at 2000 nM.

For the molecule `COc1cc(/C=C/C=C/C(=O)Nc2ccccc2C(=O)O)cc(OC)c1O` [Example 57, N-{5-(3,5-dimethoxy-4-hydroxyphenyl)-2,4-pentadienoyl}anthranilic acid], the IC50 was 400 nM.

`COc1cc(/C=C/C=C/C(=O)NCc2c(CO)cnc(C)c2O)ccc1O` [Example 17]: the IC50 is 4000 nM.

Regarding `COc1ccc(/C=C/C(=O)NCCOC(c2ccccc2)c2ccccc2)cc1OC` [Example 77, 2-[3-(3,4-dimethoxyphenyl)-2-propenoyl]aminoethyl benzhydryl ether], the IC50 was found to be 10000 nM.

In the case of `O=C(/C=C/c1ccc(O)c(O)c1)N1CCN(CCOC(c2ccccc2)c2ccccc2)CC1` [Example 66, N-[3-(3,4-dihydroxyphenyl)-2-propenoyl]-N'-(2-benzhydroxyethyl)], the IC50 is 30 nM.

Turning to `CC(OCCCN1CCN(C(=O)/C=C/C=C/c2ccc(O)c(O)c2)CC1)(c1ccccc1)c1ccc(Cl)cc1` (stereo not shown) [Example 108, N-[5-(3,4-dihydroxy)phenyl-2,4-pentadienoyl]-N'-[3-[1-phenyl-1-(p-chlorophenyl)ethoxy]propyl]piperazine], the IC50 was 8 nM.

As to `COc1cc(/C=C/C(=O)NCCN2CCN(C(=O)c3ccccc3N)CC2)ccc1O` [Example 36, N-(o-aminobenzoyl)-N'-[2-[3-[3-methoxy-4-hydroxyphenyl)-2-propenoyl]aminoethyl]piperazine], the IC50 was determined as 200000 nM.

For the molecule `O=C(/C=C/c1ccc(O)c(O)c1)NCCCCN1CCN(C(c2ccccc2)c2ccc(Cl)cc2)CC1` (stereo not shown) [Example 63], the IC50 turned out to be 50 nM.

With `COc1cc(/C=C/C(=O)NCCN2CCC(OC(c3ccccc3)c3ccccc3)CC2)cc(OC)c1O` [Example 117, 1-[2-[3-(3,5-dimethoxy-4-hydroxyphenyl)-2-propenoyl]aminoethyl]-4-benzhydroxypiperidine], the IC50 came out at 20 nM.

`COc1cc(/C=C/C(=O)N2CCN(CCn3cnc4c3c(=O)n(C)c(=O)n4C)CC2)ccc1O` [Example 103, 7-[2-[4-[3(3-methoxy-4-hydroxyphenyl)-2-propenoyl]piperazin-1-yl]-ethyl]theophilline]: the IC50 turned out to be 30000 nM.

Turning to `COc1cc(/C=C/C(=O)N2CCN(CCOC(C)(c3ccccc3)c3ccc(Cl)cc3)CC2)cc(OC)c1O` (stereo not shown) [Example 105, N-[3-(3,5-dimethoxy-4-hydroxyphenyl)-2-propenoyl]-N'-[2-[1-phenyl-1-(p-chlorophenyl)ethoxy]ethyl]piperazine], the IC50 is 10 nM.

Take `COc1cc(/C=C/C(=O)NCCN2CCN(C(c3ccccc3)c3ccccc3)CC2)cc(OC)c1OC` [Example 52, N-benzhydryl-N'-[3-(3',4',5'-trimethoxy)phenyl-2-propenoyl]aminoethylpiperazine]: the IC50 amounted to 10000 nM.

For the molecule `O=C(/C=C/c1ccc(O)c(O)c1)Nc1ccccc1O` [Example 11, N-{3-(3,4-dihydroxyphenyl)-2-propenoyl}-o-aminophenol], the IC50 turned out to be 40 nM.

Regarding `COc1cc(/C=C/C=C/C(=O)NCCCCNC(=O)c2ccccc2N)ccc1O` [Example 43, N-5-(3-methoxy-4-hydroxy)phenyl-2,4-pentadienoyl-N'-(2-amino)-benzoyl putrescine], the IC50 amounted to 300 nM.

On to `COc1cc(/C=C/C=C/C(=O)NCCN2CCC(OC(c3ccccc3)c3ccccc3)CC2)ccc1O` [Example 119, 1-[2-[5-(3-methoxy-4-hydroxyphenyl)-2,4-pentadienoyl]aminoethyl]4-benzhydroxypiperidine], for which the IC50 amounted to 9 nM.

For the molecule `O=C(/C=C/C=C/c1ccc(O)c(O)c1)NCCN1CCC(OC(c2ccccc2)c2ccccc2)CC1` [Example 118], the IC50 was determined as 30 nM.

As to `COc1cc(/C=C/C=C/C(=O)NCCCCN2CCN(C(c3ccccc3)c3ccccc3)CC2)ccc1O` [Example 87, N-benzhydryl-N'-[4-[5-(3-methoxy-4-hydroxyphenyl)-2,4-pentadienoyl]aminobutyl]piperzine], the IC50 amounted to 60 nM.

`Cc1ccc(C(=O)OCc2cnc(C)c(O)c2CNC(=O)/C=C/C=C/c2ccc(O)c(O)c2)cc1` [Example 46]: the IC50 is 80 nM.

With `COc1cc(/C=C/C=C/C(=O)NCCN2CCN(C(c3ccccc3)c3ccccc3)CC2)cc(OC)c1OC` [Example 59, N-[2-[5-(3,4,5-trimethoxyphenyl)-2,4-pentadienoyl]aminoethyl]-N'-benzhydrylpiperazine], the IC50 worked out at 2000 nM.

Regarding `COc1ccc(/C=C/C=C/C(=O)N2CCN(CCCOC(c3ccccc3)c3ccccc3)CC2)cc1OC` [Example 94, N-[5-(3,4-dimethoxyphenyl)-2,4-pentadienoyl]-N'-(3-benzhydroxypropyl)piperazine], the IC50 stood at 4000 nM.

Regarding `O=C(/C=C/c1ccc(O)c(O)c1)NCCCN1CCN(C(c2ccccc2)c2ccccc2)CC1` [Example 37, N-benzhydryl-N'-[{3-(3,4-dihydroxyphenyl)-2-propenoyl}-aminopropyl]piperazine], the IC50 was 30 nM.

With `CC(OCCCN1CCN(C(=O)/C=C/c2ccc(O)c(O)c2)CC1)(c1ccccc1)c1ccc(Cl)cc1` (stereo not shown) [Example 101, N-[3-(3,4-dihydroxyphenyl)-2-propenoyl]-N'-[3-[1-phenyl-1-(p-chlorophenyl)ethoxy]propyl]piperazine], the IC50 came out at 10 nM.

As for `COc1cc(/C=C/C=C/C(=O)N2CCN(CCCOC(c3ccccc3)c3ccccc3)CC2)cc(OC)c1O` [Example 99], the IC50 was 30 nM.

Take `COc1cc(/C=C/C=C/C(=O)NCCN2CCN(C(=O)c3ccccc3N)CC2)ccc1O` [Example 42, N-(o-aminobenzoyl)-N'-[{5-(3-methoxy-4-hydroxyphenyl)-2,4-pentadienoyl}aminoethyl]piperazine]: the IC50 is 2000 nM.

As to `COc1cc(/C=C/C=C/C(=O)NCCN2CCN(C(c3ccccc3)c3ccc(Cl)cc3)CC2)cc(OC)c1O` (stereo not shown) [Example 54, N-(p-chlorobenzhydryl)-N'-[2-{5-(3,5-dimethoxy-4-hydroxyphenyl)-2,4-pentadienoyl}aminoethyl]piperazine], the IC50 turned out to be 20 nM.

For the molecule `COc1ccc(/C=C/C=C/C(=O)NCCCN2CCN(C(c3ccccc3)c3ccccc3)CC2)cc1OC` [Example 47, N-[3-[5-(3,4-dimethoxyphenyl)-2,4-pentadienoyl]-aminopropyl]-N'-benzhydrylpiperazine], the IC50 is 4000 nM.

Consider `COc1cc(/C=C/C(=O)NCCn2cnc3c2c(=O)n(C)c(=O)n3C)ccc1O` [Example 69, 7-[2-[3-(3-methoxy-4-hydroxy)phenyl-2-propenoyl]aminoethyl]theophylline], for which the IC50 was 6000 nM.

As to `COc1cc(/C=C/C=C/C(=O)N2CCN(CCn3cnc4c3c(=O)n(C)c(=O)n4C)CC2)ccc1O` [Example 112], the IC50 came to 2000 nM.

`COc1cc(/C=C/C=C/C(=O)NCCN2CCN(C(c3ccccc3)c3ccc(Cl)cc3)CC2)ccc1O` (stereo not shown) [Example 16, N-(p-chlorobenzhydryl)-N'-[2-{5-(3-methoxy-4-hydroxyphenyl)-2,4-pentadienoyl}aminoethyl]piperazine]: the IC50 worked out at 60 nM.

For `COc1cc(/C=C/C=C/C(=O)NCCCCN2CCN(C(c3ccccc3)c3ccc(Cl)cc3)CC2)ccc1O` (stereo not shown) [Example 86], the IC50 came out at 40 nM.

Values taken from patent US4673684A, “Amide derivatives and 5-lipoxygenase inhibitors containing the same as an active ingredient” (Terumo Corporation, priority 1984, dated 1987).
